Measured values taken from US4994473A, “Pyridyl containing insecticides” (ICI Americas Inc., priority 1988, dated 1991).

How the values were obtained:
[1] = tested on: Heliothis virescens; experiment: Tobacco budworm egg dip test; format: in vivo, Tobacco Budworm Heliothis virescens (Fabricius); settings: 2-day old eggs (TBW-E), percent of test compound in solution
Protocol: (§1) The compounds in Table I above were tested for insecticidal activity using the following testing procedures. LC50 values, based on the results of these tests and calculated according to dosage-mortality curves, are expressed in Table II.
Tobacco Budworm Heliothis virescens (Fabricius)
Eggs: Paper towel patches of 2-day old eggs of the tobacco budworm were dipped in acetone solutions of the test compound and placed in petri dishes containing a portion of larval rearing medium. Treated eggs were maintained at 78° F. and mortality was recorded after all control eggs had hatched and the young larvae were feeding on the media. Test concentrations ranged from 0.1% downward. The LC-50 value is expressed below in Table II under the heading "TBW-E" in terms of percent of the test compound in the solution.

[2] = tested on: Aphis fabae; experiment: Black bean aphid spray test on nasturtium plants, mortality after 48 hours; format: in vivo, Black Bean Aphid Aphis fabae (Scop.); settings: mixed ages, percent of test compound in sprayed solution
Protocol: as §1
Black Bean Aphid Aphis fabae (Scop.)
Nasturtium plants (Tropaeolum sp.) approximately 5 cm tall, were transplanted into sandy loam soil in small cups and infested with 25-50 black bean aphids of mixed ages. Twenty-four hours later they were sprayed to the point of runoff with 50--50 acetone-water solutions of the test compound. Treated plants were held in the greenhouse and mortality was recorded after 48 hours. Test concentrations ranged from 0.05% downward. The LC-50 value is expressed below in Table II under the heading "BA" in terms of percent of the test compound in the sprayed solution.

[3] = tested on: Trichoplusia ni; experiment: Cabbage looper larvae leaf-dip test; format: in vivo, Cabbage Looper Trichoplusia ni (Hubner); settings: second instar larvae, percent of test compound in solution, 3-5 days
Protocol: as §1
Cabbage Looper Trichoplusia ni (Hubner)
The test compound was diluted in a 50--50 acetone-water solution Cotyledons of hyzini squash (Calabacita abobrinha), approximately 1×1.5 inches, were immersed in the test solutions for 2-3 seconds and placed on a wire screen to dry. The dried leaves were p1aced in petri dishes containing a moistened piece of filter paper and infested with 5 secondinstar cabbage looper larvae. The dishes were placed in a high humidity chamber. Mortality of the larvae was recorded 3-5 days later. Test concentrations ranged from 0.1% downward. The LC-50 value is expressed below in Table II under the heading "CL" in terms of percent of the test compound in solution.

[4] = tested on: Tetranychus urticae; experiment: Two-spotted mite acaricidal test on pinto bean plants; format: in vivo, two-spotted mite Tetranychus urticae (Koch); settings: percent concentration in solution, 5-7 days; for LC50 2-SM A: adults; for LC50 2-SM E: eggs
Text: Acaricidal Evaluation Test
The two-spotted mite (2SM) [Tetranychus urticae (Koch)]was employed in tests for miticides. The test procedure was as follows:
Pinto bean plants (Phaseolus sp.) approximately 10 cm tall, were transplanted into sandy loam soil in small cups and thoroughly infested with two-spotted mites of mixed ages and sexes. Twenty-four hours later the infested plants were inverted and dipped for 2-3 seconds in 50--50 acetone-water solutions of the test compound. Treated plants were held in the greenhouse, and 5-7 days later mortality was determined for both adult mites and the nymphs hatching from eggs which were on the plants at the time of treatment. Test concentrations ranged from 0.05% downward. The LC-50 value is expressed below in Table II under the headings "2SM-A" (i.e., adults) and "2SM-E" (i.e. eggs) in terms of percent concentration of the test compound in the solution.

[5] = tested on: Diabrotica undecimpunctata undecimpunctata; experiment: Western spotted cucumber beetle larvae soil test; format: in vivo; settings: Diabrotica eggs/larvae; ppm of the test compound in the soil
Protocol: as §1
Western Spotted Cucumber Beetle Larvae Diabrotica undecimpunctata undecimpunctata (Mannherheim)
Ten grams of moist potting soil was placed in a plastic cup. The test compound was dissolved in acetone. A 0.05 ml aliquot of the test sample, diluted to the desired concentration, was added to the soil. The cup was capped and the soil was mixed on a vortex mixer for approximately 15 seconds. An indentation was made on the surface of the soil and approximately 50 Diabrotica eggs were added. The eggs were covered with soil and maintained at room temperature (approximately 70° F. or 21° C.). Four days later a section of Romaine lettuce (Latuca sativa) leaf was placed in the treated cups. One week later the cups were examined for live larvae. Test concentrations ranged from 25 ppm downward. The LC-50 value is expressed below in Table II under the heading "Diabrotica" in terms of ppm of the test compound in the soil.

[6] = tested on: Musca domestica; experiment: Housefly contact test, mortality after 48 hours; format: in vivo, Housefly Musca domestica; settings: μg of the test compound per 25 female flies
Protocol: as §1
The test compound was diluted in acetone and aliquots pipetted onto the bottom of aluminum dishes. To ensure even spreading of the chemical on the bottom of the dishes, 1 ml of acetone containing 0.01% peanut oil was also added to each dish. After all solvents had evaporated, the dishes were placed in circular cardboard cages containing 25 female houseflies, 1-2 days old. The cages were covered on the bottom with cellophane and on the top with tulle netting, and each contained a sugar-water saturated cotton plug for maintenance of the flies. Mortality was recorded after 48 hours. Test levels ranged from 100 μg/25 female houseflies downward. The LC-50 value is expressed below in Table II under the heading "HF", in terms of μg of the test compound per 25 female flies.

SMILES: CC(C)C(=Nc1ccc(OCC(F)(F)F)nc1)OCc1cccc(Oc2ccccc2)c1 [Compound 40]
- LC50 TBW [1]: 0.045%
- LC50 BA [2]: 0.0003%
- LC50 CL [3]: 0.00029%
- LC50 2-SM A [4]: 0.006%
- LC50 2-SM E [4]: 0.006%
- LC50 Diabrotica [5]: > 25 ppm
- LC50 HF [6]: < 100 µg

SMILES: CC(C)C(=Nc1cncc(C(F)(F)F)c1)OCc1cccc(Oc2ccccc2)c1 [Compound 33]
- LC50 TBW [1]: 0.075%
- LC50 BA [2]: > 0.05%
- LC50 CL [3]: 0.0035%
- LC50 2-SM A [4]: > 0.05%
- LC50 2-SM E [4]: > 0.05%
- LC50 Diabrotica [5]: > 25 ppm
- LC50 HF [6]: 5 µg

SMILES: C=C(C)C(=Nc1ccc(Cl)nc1)OCc1cccc(Oc2ccccc2)c1 [Compound 47]
- LC50 TBW [1]: < 0.1%
- LC50 BA [2]: 0.05%
- LC50 CL [3]: < 0.1%
- LC50 2-SM A [4]: > 0.05%
- LC50 2-SM E [4]: > 0.05%
- LC50 Diabrotica [5]: > 25 ppm
- LC50 HF [6]: < 100 µg

SMILES: CC(C)C(=Nc1ccc2nc(-c3ccccc3)oc2c1)OCc1cccc(Oc2ccccc2)c1 [Compound 28]
- LC50 TBW [1]: > 0.1%
- LC50 BA [2]: > 0.05%
- LC50 CL [3]: 0.04%
- LC50 2-SM A [4]: > 0.05%
- LC50 2-SM E [4]: > 0.05%
- LC50 Diabrotica [5]: > 25 ppm
- LC50 HF [6]: > 100 µg
